Reference: patent US6815664B2, “Method for separation of particles” (Genoptix, Inc., priority 2001, dated 2004)

Tests used:
U937 cells = assay: Escape velocity of treated and untreated leukemia cells; type: cell-based; details: PMA 5 ug/mL, 37° C., treated for 6 hours
From the text: Separation By Refractive Index—Polystyrene, polymethylmethacrylate and silica particles of similar size (˜5 micrometer diameter, Bangs Labs) and refractive indexes of 1.59, 1.49 and 1.37, respectively, were sorted by moving optical gradient fields. Observed escape velocities for polystyrene, PMMA and silica were 44, 47 and 32 micrometers/second, respectively. Briefly, a particle is aligned in the fringe and the fringes are moved at increasing speed until the particle slips. […] It will be appreciated by those skilled in the art that the absolute value of the escape velocity will differ depending upon system conditions, e.g., laser power. The numerical results provided herein are meant to provide measured data for the system actually used, and are not to be considered a limitation on the values which might exist in a different system.
PMA was dissolved in ethanol at a concentration of 5 mg/mL. 3 mls of U937 cells grown in RPMI 1640 media with supplements were removed from the culture flask and 1 ml was placed into each of three eppendorf tubes. Cells from the first tube were pelleted for 4 minutes at 10,000 rpm and resuspended in 250 uL PBS/1% BSA buffer for escape velocity measurements. PMA was added to the remaining two tubes of U937 cells to a final concentration of 5 ug/mL. These tubes were vortexed and placed in a 37° C. water bath for either one hour or six hours. […]

K562 Cells = assay: Escape velocity of cells in a moving optical gradient field (1064 system, CYTOP coated coverslips); type: cell-based; details: K562 cells (chronic myelogenous leukemia, lymphoblast), 26 Hr. Taxol treatment; untreated K562 10.0 +/− 0.7
From the text: Certain of the data reported herein were generated with the following setup. Optical gradient fields were generated using a Michelson interferometer and either a 150 mW, 812 nm laser (812 system) or a 2.5 W, 1064 nm laser (1064 system). The 812 system used a 100× (1.25 NA) oil immersion lens to focus the fringe pattern and to visualize the sample. The 1064 system used a 20× objective to focus the fringes and a 60× objective to visualize the sample. In general the sample cell was a coated microscope slide and/or coverslip that was sealed with Vaseline. Coverslip spacers controlled the height of the cell at approximately 150 micrometers
Separation By Refractive Index—Polystyrene, polymethylmethacrylate and silica particles of similar size (˜5 micrometer diameter, Bangs Labs) and refractive indexes of 1.59, 1.49 and 1.37, respectively, were sorted by moving optical gradient fields. Observed escape velocities for polystyrene, PMMA and silica were 44, 47 and 32 micrometers/second, respectively. […] The numerical results provided herein are meant to provide measured data for the system actually used, and are not to be considered a limitation on the values which might exist in a different system.
Escape velocities were measured using a gradient field generated by the 1064 system on CYTOP coated coverslips.

SMILES	escape velocity as compared to the untreated cells (U937 cells)	Escape Velocity (K562 Cells)
CCCCCCCCCCCCCC(=O)O[C@@H]1[C@@H](C)[C@@]2(O)[C@@H](C=C(CO)C[C@]3(O)C(=O)C(C)=C[C@@H]23)[C@@H]2C(C)(C)[C@]12OC(C)=O [PMA]	significantly higher escape velocity	–
CC(=O)O[C@H]1C(=O)[C@@]2(C)[C@H]([C@H](OC(=O)c3ccccc3)[C@]3(O)C[C@H](OC(=O)[C@H](O)[C@@H](NC(=O)c4ccccc4)c4ccccc4)C(C)=C1C3(C)C)[C@]1(OC(C)=O)CO[C@@H]1C[C@@H]2O [Taxol]	–	8.2 +/− 0.4 um/sec.
